The values below come from patent publication EP4799647A1, “CAMPTOTHECIN DRUG CONJUGATE, AND PREPARATION METHOD THEREFOR AND USE THEREOF” (Shanghai Qilu Pharmaceutical Research and Development …, priority 2023, dated 2025).

Assay in all cases: Cell inhibitory activity experiment (CellTiter-Glo, 72 hours)
Common to all, as to assay type: cell-based

In test [1] the test system is COLO320DM. Conditions: Homo sapiens, COLO 320DM. The protocol: (§1) • a) All cell lines were cultured in complete medium at 37 °C under 5% CO2. • b) Cells in logarithmic growth phase were collected and counted by a […]. The cell viability was detected by trypan blue exclusion method, and guaranteed to be over 90%. • c) The cell density was adjusted with a complete medium. Subsequently, 80 µL of cell suspension was seeded into each well of a 96-well cell culture plate according to 3000 cells per well. • d) The cells in the 96-well plate were cultured at 37°C under 5% CO2. • e) 10× drug solution was prepared. […] The working concentration of the test compound was 5 µM. For the test group, 10 µL of serially diluted test compound was transferred into the corresponding experimental well of 96-well cell culture plate, and added with 10 µL of diluent containing an equal amount of DMSO (1%), and three replicate wells were set up for each drug concentration. Control wells were added with corresponding volumes of diluent. • f) The cells in the 96-well plate added with the drug were continuously cultured at 37°C under 5% CO2 for 72 hours. • g) CTG reagent (CellTiter-Glo® Luminescent Cell Viability Assay, purchased from Promega, Cat. No. G7571) was thawed, and the cell culture plate was equilibrated to room temperature for 30 minutes. • h) 100 µL of CTG solution was added into each well. • i) The plate was shaken on an orbital shaker for 5 minutes to induce cell lysis. • j) The cell culture plate was placed at room temperature for 20 minutes to stabilize luminescent signals. • k) Luminescence intensities were read, and data were collected. • l) The data were analyzed by using GraphPad Prism 7.0 software, non-linear S-curve regression was applied to fit the data for generating dose-response curves, and IC50 values were calculated accordingly. Specific experimental results were shown in Table 4. [formula] Table 4 Cell inhibitory activities of payload compounds in the present invention

The test system of test [2] is AsPC-1. Particulars: Homo sapiens, ASPC1; AsPC-1, 72 hours. The protocol:
as §1

Test [3] deals with HT29. Particulars: Homo sapiens, HT-29; HT29, 72 hours. The protocol:
as §1

The test system of test [4] is COLO205. Particulars: Homo sapiens, COLO 205; COLO205, 72 hours. The protocol: as §1
Test [5] concerns SK-OV-3. Conditions: Homo sapiens; SK-OV-3, 72 hours. The protocol:
as §1

The subject of test [6] is HCT15. Conditions: Homo sapiens, HCT-15; HCT15, 72 hours. The protocol: as §1
Test [7] deals with A549. Particulars: Homo sapiens; A549, 72 hours. The protocol: as §1

Where only a bound is given, the exact number is not on record here.

Regarding `CC[C@@]1(O)C(=O)OCc2c1cc1n(c2=O)Cc2c-1nc1cc(F)c(F)cc1c2CO` [C1-5, (4S)-4-ethyl-8,9-difluoro-4-hydroxy-11-(hydroxymethyl)-3,4,12,14-tetrahydro-1H-pyrano[3', 4':6,7]indolizino[1,2-b]quinolin-3,14-dione], the IC50 (usually the concentration that gives 50% inhibition) in test [1] was determined as 0.196 µM; in test [2], 1.12 µM; in test [3], 0.144 µM; in test [4], 0.0243 µM; in test [5], 0.0795 µM; in test [6], 0.142 µM. In test [7], this molecule returned an IC50 of 0.0211 µM.
As to `CC[C@@]1(O)C(=O)OCc2c1cc1n(c2=O)Cc2c-1nc1cc(F)c(C)c3c1c2[C@@H](NC(=O)CO)CC3` [DXd], the 50% inhibitory concentration (IC50) in test [1] was 0.575 µM; in test [2], 3.1 µM; in test [3], 0.344 µM; in test [4], 0.0955 µM; in test [5] it was 0.288 µM; in test [6], 0.889 µM. For the same molecule, half-maximal inhibition in test [7] (IC50) was put at 0.104 µM.
For `CCc1c2c(nc3ccc(O)cc13)-c1cc3c(c(=O)n1C2)COC(=O)[C@]3(O)CC` [SN-38], the half-inhibitory concentration (IC50) was 1.42 µM in test [1]; > 10 µM in test [2]; 0.287 µM in test [3]; 0.0896 µM in test [4]; 0.168 µM in test [5]; 0.313 µM in test [6]. This molecule also displayed an IC50 in test [7] of 0.0665 µM.
